What was measured:
Experiment in all cases: drug sensitivity score (DSS) (DSS (unitless, 0-50 scale)); higher = more sensitive (stronger viability inhibition); extreme values may be limits of the assay
Conditions in all cases: 72 h; culture: 2D
[1] = tested on: FM-MEL-2
Procedure, shortened: (§1)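 A 527-compound oncology library was screened in 384-well plates against melanoma cell lines and patient-derived melanoma cultures grown in 2D, the cultures at 1000–1500 cells per well. Each compound, in DMSO or water, was applied at five concentrations over a 10,000-fold range and incubated for 72 h at 37 °C before CellTiter-Glo luminescence readout of viability. A drug sensitivity score, a modified area-under-curve measure, was calculated from curves fitted in the in-house Breeze software.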

[2] = tested on: FM-MEL-6
Procedure, shortened: as §1

[3] = tested on: SK-MEL-2
Procedure, shortened: as §1

[4] = tested on: WM165
Procedure, shortened: as §1

[5] = tested on: Bowes
Procedure, shortened: as §1

[6] = tested on: FM-MEL-3
Procedure, shortened: as §1

[7] = tested on: WM852
Procedure, shortened: as §1

[8] = tested on: SK-MEL-28
Procedure, shortened: as §1

Q: What does the source list for `O=C(/C=C\n1cnc(-c2cc(C(F)(F)F)cc(C(F)(F)F)c2)n1)NNc1cnccn1` [Selinexor]?
A: drug sensitivity score [1]: 9.6; drug sensitivity score [2]: 8.4; drug sensitivity score [3]: 13.3; drug sensitivity score [4]: 18.7; drug sensitivity score [5]: 12.4; drug sensitivity score [6]: 11.5; drug sensitivity score [7]: 8.2; drug sensitivity score [8]: 9.2

Q: What does the source list for `Cc1nc(C(=O)NCC(=O)O)c(O)c2ccc(Oc3ccccc3)cc12` [Roxadustat]?
A: drug sensitivity score [1]: 0; drug sensitivity score [2]: 0; drug sensitivity score [3]: 0; drug sensitivity score [4]: 0; drug sensitivity score [5]: 0; drug sensitivity score [6]: 0; drug sensitivity score [7]: 2.1; drug sensitivity score [8]: 0

Q: What does the source list for `N#Cc1ccc(COC[C@H]2O[C@@H](n3c(NCc4ccc(Cl)c(Cl)c4)nc4c(N)ncnc43)[C@H](O)[C@@H]2O)cc1`?
A: drug sensitivity score [1]: 4.2; drug sensitivity score [2]: 1; drug sensitivity score [3]: 0; drug sensitivity score [4]: 5.1; drug sensitivity score [5]: 2.7; drug sensitivity score [6]: 6.8; drug sensitivity score [7]: 0; drug sensitivity score [8]: 5.5

Q: How did the drug sensitivity score [1] turn out when `C[C@@H]1COCCN1c1cc(C2([S@](C)(=N)=O)CC2)nc(-c2cc[nH]c3nccc2-3)n1` [AZD6738] was run?
A: 3.4

Q: What about the drug sensitivity score [2] of the same compound?
A: 7

Q: And the drug sensitivity score [3]?
A: 10.8

Q: And the drug sensitivity score [4]?
A: 10.2

Q: What about the drug sensitivity score [5] of the same compound?
A: 19.3

Q: And the drug sensitivity score [6]?
A: 9.7

Q: What about the drug sensitivity score [7] of the same compound?
A: 14.8

Q: And the drug sensitivity score [8]?
A: 2.7

Q: With `Cc1ccc(-c2cc(C(F)(F)F)nn2-c2ccc(S(N)(=O)=O)cc2)cc1` [Celecoxib] as the compound, how does the drug sensitivity score [1] read?
A: 0

Q: And the drug sensitivity score [2]?
A: 0

Q: And the drug sensitivity score [3]?
A: 0

Q: And the drug sensitivity score [4]?
A: 0

Q: And the drug sensitivity score [5]?
A: 0

Q: And the drug sensitivity score [6]?
A: 0

Q: And the drug sensitivity score [7]?
A: 0

Q: And the drug sensitivity score [8]?
A: 0

Q: For `Nc1cc(F)ccc1NC(=O)/C=C/c1cnn(C/C=C/c2ccccc2)c1` [RGFP966], which drug sensitivity score [1] is on record?
A: 0

Q: What about the drug sensitivity score [2] of the same compound?
A: 1.9

Q: What about the drug sensitivity score [3] of the same compound?
A: 0

Q: What about the drug sensitivity score [4] of the same compound?
A: 0

Q: What about the drug sensitivity score [5] of the same compound?
A: 1.6

Q: What about the drug sensitivity score [6] of the same compound?
A: 0.5

Q: What about the drug sensitivity score [7] of the same compound?
A: 0

Q: And the drug sensitivity score [8]?
A: 0

Q: `O=C(c1ccc(OCCN2CCCCC2)cc1)c1c(-c2ccc(O)cc2)sc2cc(O)ccc12` [Raloxifene] was tested. Which drug sensitivity score [1] did it give?
A: 2.1

Q: What about the drug sensitivity score [2] of the same compound?
A: 1.8

Q: What about the drug sensitivity score [3] of the same compound?
A: 0

Q: And the drug sensitivity score [4]?
A: 2

Q: What about the drug sensitivity score [5] of the same compound?
A: 0

Q: What about the drug sensitivity score [6] of the same compound?
A: 4.7

Q: What about the drug sensitivity score [7] of the same compound?
A: 1.9

Q: What about the drug sensitivity score [8] of the same compound?
A: 1.3

Q: What does the source list for `Cn1cc(C2=C(c3cn(C4CCN(Cc5ccccn5)CC4)c4ccccc34)C(=O)NC2=O)c2ccccc21` [Enzastaurin]?
A: drug sensitivity score [1]: 1.7; drug sensitivity score [2]: 0; drug sensitivity score [3]: 0.2; drug sensitivity score [4]: 0; drug sensitivity score [5]: 0; drug sensitivity score [6]: 3.7; drug sensitivity score [7]: 2.1; drug sensitivity score [8]: 0

Q: What does the source list for `COc1cc2/c(=N/c3ccc(Br)cc3F)nc[nH]c2cc1OCC1CCN(C)CC1` [Vandetanib]?
A: drug sensitivity score [1]: 0; drug sensitivity score [2]: 0.2; drug sensitivity score [3]: 0; drug sensitivity score [4]: 0; drug sensitivity score [5]: 1.3; drug sensitivity score [6]: 0; drug sensitivity score [7]: 0; drug sensitivity score [8]: 0.4

Q: What does the source list for `C=CC(=O)N1CCC(Oc2cc3c(Nc4ccc(Cl)c(Cl)c4F)ncnc3cc2OC)CC1` [Poziotinib]?
A: drug sensitivity score [1]: 0; drug sensitivity score [2]: 0; drug sensitivity score [3]: 0; drug sensitivity score [4]: 0; drug sensitivity score [5]: 2.2; drug sensitivity score [6]: 0; drug sensitivity score [7]: 0; drug sensitivity score [8]: 0

Q: Which results are given for `COc1cc(Nc2c(C#N)cnc3cc(OCCCN4CCN(C)CC4)c(OC)cc23)c(Cl)cc1Cl` [Bosutinib]?
A: drug sensitivity score [1]: 5; drug sensitivity score [2]: 4.9; drug sensitivity score [3]: 4.7; drug sensitivity score [4]: 8.4; drug sensitivity score [5]: 8.2; drug sensitivity score [6]: 3.2; drug sensitivity score [7]: 7.6; drug sensitivity score [8]: 8.7

Q: `O=C(/C=C\n1cnc(-c2cc(C(F)(F)F)cc(C(F)(F)F)c2)n1)NNc1ccccn1` [Verdinexor] was tested. Which drug sensitivity score [1] did it give?
A: 4.2

Q: What about the drug sensitivity score [2] of the same compound?
A: 4

Q: And the drug sensitivity score [3]?
A: 2.3

Q: And the drug sensitivity score [4]?
A: 9.3

Q: What about the drug sensitivity score [5] of the same compound?
A: 4.1

Q: What about the drug sensitivity score [6] of the same compound?
A: 5.3

Q: And the drug sensitivity score [7]?
A: 2

Q: What about the drug sensitivity score [8] of the same compound?
A: 5

Q: How did the drug sensitivity score [1] turn out when `Cc1cc(Nc2nc(N[C@@H](C)c3ncc(F)cn3)ncc2Cl)[nH]n1` [AZD1480] was run?
A: 0

Q: And the drug sensitivity score [2]?
A: 0

Q: And the drug sensitivity score [3]?
A: 0

Q: What about the drug sensitivity score [4] of the same compound?
A: 0

Q: What about the drug sensitivity score [5] of the same compound?
A: 0

Q: What about the drug sensitivity score [6] of the same compound?
A: 0

Q: And the drug sensitivity score [7]?
A: 0

Q: What about the drug sensitivity score [8] of the same compound?
A: 0

Q: How did the drug sensitivity score [1] turn out when `C=CC(=O)N1CC/C(=C\c2ccc(F)c([N+](=O)[O-])c2)C(=O)/C(=C/c2ccc(F)c([N+](=O)[O-])c2)C1` [VLX1570] was run?
A: 7.8

Q: What about the drug sensitivity score [2] of the same compound?
A: 2.4

Q: And the drug sensitivity score [3]?
A: 14.9

Q: What about the drug sensitivity score [4] of the same compound?
A: 24

Q: And the drug sensitivity score [5]?
A: 23.8

Q: And the drug sensitivity score [6]?
A: 18.6

Q: And the drug sensitivity score [7]?
A: 18.8

Q: What about the drug sensitivity score [8] of the same compound?
A: 15.8

Q: `CCN(CC)CCCC(C)Nc1c2ccc(Cl)cc2nc2ccc(OC)cc12` (stereo not given) [Mepacrine] was tested. Which drug sensitivity score [1] did it give?
A: 15.1

Q: And the drug sensitivity score [2]?
A: 14.2

Q: What about the drug sensitivity score [3] of the same compound?
A: 13.6

Q: And the drug sensitivity score [4]?
A: 17.1

Q: What about the drug sensitivity score [5] of the same compound?
A: 19.6

Q: And the drug sensitivity score [6]?
A: 9.9

Q: And the drug sensitivity score [7]?
A: 17

Q: What about the drug sensitivity score [8] of the same compound?
A: 10.3

Q: With `Cn1cc(-c2ccc(F)c(C(F)(F)F)c2)nc1C1CCN(c2ncnc3[nH]ncc23)CC1` as the compound, how does the drug sensitivity score [1] read?
A: 0

Q: What about the drug sensitivity score [2] of the same compound?
A: 0

Q: What about the drug sensitivity score [3] of the same compound?
A: 0

Q: And the drug sensitivity score [4]?
A: 0

Q: What about the drug sensitivity score [5] of the same compound?
A: 0

Q: What about the drug sensitivity score [6] of the same compound?
A: 0

Q: What about the drug sensitivity score [7] of the same compound?
A: 0

Q: What about the drug sensitivity score [8] of the same compound?
A: 0

Q: With `CCn1c(=O)c(-c2ccc(Cl)cc2Cl)cc2cnc(Nc3ccc(N4CCNCC4)c(F)c3)nc21` [FRAX486] as the compound, how does the drug sensitivity score [1] read?
A: 0

Q: And the drug sensitivity score [2]?
A: 1.9

Q: What about the drug sensitivity score [3] of the same compound?
A: 0.5

Q: And the drug sensitivity score [4]?
A: 7.6

Q: What about the drug sensitivity score [5] of the same compound?
A: 9.7

Q: And the drug sensitivity score [6]?
A: 0

Q: And the drug sensitivity score [7]?
A: 1.4

Q: And the drug sensitivity score [8]?
A: 3.2

Q: What does the source list for `O=C(O)CNC(=O)c1c(O)c2ccccc2n(Cc2ccccc2)c1=O` [IOX-2]?
A: drug sensitivity score [1]: 0; drug sensitivity score [2]: 0; drug sensitivity score [3]: 0; drug sensitivity score [4]: 0; drug sensitivity score [5]: 0; drug sensitivity score [6]: 0; drug sensitivity score [7]: 0.2; drug sensitivity score [8]: 0

Q: `Oc1ncnc2[nH]ncc12` [Allopurinol] was tested. Which drug sensitivity score [1] did it give?
A: 0

Q: What about the drug sensitivity score [2] of the same compound?
A: 0

Q: And the drug sensitivity score [3]?
A: 0

Q: And the drug sensitivity score [4]?
A: 0

Q: What about the drug sensitivity score [5] of the same compound?
A: 0

Q: And the drug sensitivity score [6]?
A: 0

Q: And the drug sensitivity score [7]?
A: 0

Q: What about the drug sensitivity score [8] of the same compound?
A: 0

Q: What does the source list for `CC1(COc2ccc3c(c2)ncn3-c2ccc3cccc(N4CCC(N)CC4)c3n2)COC1` [Crenolanib]?
A: drug sensitivity score [1]: 5; drug sensitivity score [2]: 5.4; drug sensitivity score [3]: 5.4; drug sensitivity score [4]: 7; drug sensitivity score [5]: 4.6; drug sensitivity score [6]: 1.5; drug sensitivity score [7]: 6.6; drug sensitivity score [8]: 6.8
